Values of other authors as cited in PubChem BioAssay AID1259410 (Chemical Carcinogenesis Research Information System (CCRIS), 2018).

Tested on: rodent tumor promotion studies, tumor incidence
Test: CCRIS tumor promotion studies
Settings: Route [Promoter]: DERMAL, Species: MOUSE

Measured: outcome

CCCCCCCCCCCCCC(=O)O[C@@H]1[C@@H](C)[C@@]2(O)[C@@H](C=C(CO)C[C@]3(O)C(=O)C(C)=C[C@@H]23)[C@@H]2C(C)(C)[C@]12OC(C)=O
skin: papilloma: Carcinogen: 15,16-DIHYDRO-11-METHYLCYCLOPENTA[A]PHENANTHREN-17-ONE, 892-17-1, Doses [Carcinogen]: 1632 NMOL IN 100 µL TOLUENE ONCE, Doses [Promoter]: 0, 2 UG IN 50 µL ACETONE 2/WK FOR 19 WK BEGINNING 1 WK POST CARCINOGEN TREATMENT (STUDY DURATION: 20 WK), Route [Carcinogen]: DERMAL, Strain/Sex: SKH/HR-1/MALE | Carcinogen: CISPLATIN, 15663-27-1, Doses [Carcinogen]: 7.5 MG/KG IN 2.5% SALINE ONCE ON DAY 17 OF GESTATION, Doses [Promoter]: 0, 2 UG IN ACETONE 2/WK FOR 20 WK TO OFFSPRING OF MOTHERS ADMINISTERED CARCINOGEN (STUDY DURATION: 25 WK), Route [Carcinogen]: INTRAPERITONEAL, TRANSPLACENTAL, Strain/Sex: SENCAR/MALE, FEMALE
skin: papilloma, carcinoma: Carcinogen: BENZO[A]PYRENE, 50-32-8, Doses [Carcinogen]: 0, 2.52, 12.6, 50.5, 101 UG IN ACETONE ONCE, Doses [Carcinogen]: 0, 2.52, 12.6, 50.5, 101 UG IN ACETONE ONCE, Doses [Promoter]: 0, 2 UG IN ACETONE 2/WK FOR 52 WK (STUDY DURATION: 1 YR), Route [Carcinogen]: DERMAL, Strain/Sex: SENCAR/FEMALE | Carcinogen: BENZO[A]PYRENE, 50-32-8, Doses [Carcinogen]: 0, 2.52, 12.6, 50.5, 101 UG IN ACETONE ONCE, Doses [Carcinogen]: 0, 2.52, 12.6, 50.5, 101 UG IN ACETONE ONCE, Doses [Promoter]: 0, 2 UG IN ACETONE 2/WK FOR 52 WK (STUDY DURATION: 1 YR), Route [Carcinogen]: DERMAL, Strain/Sex: SENCAR/MALE
skin: tumors: Carcinogen: (+/-)-TRANS-1,2-DIHYDRO-1,2-DIHYDROXY-5-METHYLCHRYSENE, 96741-20-7, Doses [Carcinogen]: 33, 100 NMOL IN 0.1 ML ACETONE ONCE, Doses [Promoter]: 2.5 UG IN 0.1 ML ACETONE 3/WK FOR 25 WK BEGINNING 10 D POST INITIATION (STUDY DURATION: 27 WK), Route [Carcinogen]: DERMAL, Strain/Sex: CD-1/FEMALE | Carcinogen: (+/-)-TRANS-1,2-DIHYDROXY-ANTI-3,4-EPOXY-1,2,3,4-TETRAHYDRO-5-METHYLCHRYSENE, 96790-39-5, Doses [Carcinogen]: 33, 100 NMOL IN 0.1 ML ACETONE ONCE, Doses [Promoter]: 2.5 UG IN 0.1 ML ACETONE 3/WK FOR 25 WK BEGINNING 10 D POST INITIATION (STUDY DURATION: 27 WK), Route [Carcinogen]: DERMAL, Strain/Sex: CD-1/FEMALE | Carcinogen: (+/-)-TRANS-7,8-DIHYDRO-7,8-DIHYDROXY-5-METHYLCHRYSENE, 96741-21-8, Doses [Carcinogen]: 33, 100 NMOL IN 0.1 ML ACETONE ONCE, Doses [Promoter]: 2.5 UG IN 0.1 ML ACETONE 3/WK FOR 25 WK BEGINNING 10 D POST INITIATION (STUDY DURATION: 27 WK), Route [Carcinogen]: DERMAL, Strain/Sex: CD-1/FEMALE | Carcinogen: BENZO[B]FLUORANTHRENE, 205-99-2, Doses [Carcinogen]: 40, 100 NMOL TOTAL DOSES GIVEN IN 10 SUBDOSES 1/2 D IN 0.1 ML ACETONE, Doses [Promoter]: 2.5 UG IN 0.1 ML ACETONE 3/WK FOR 30 WK BEGINNING 10 D POST CARCINOGEN TREATMENT (STUDY DURATION: 34 WK), Route [Carcinogen]: DERMAL, Strain/Sex: CD-1/FEMALE | Carcinogen: BENZO[J]FLUORANTHENE, 205-82-3, Doses [Carcinogen]: 0, 1, 3 UMOL (TOTAL DOSE) IN ACETONE SOLUTION 1/2 D FOR 10 DOSES, Doses [Carcinogen]: 0, 1, 3 UMOL (TOTAL DOSE) IN ACETONE SOLUTION 1/2 D FOR 10 DOSES, Doses [Promoter]: 2.5 UG IN ACETONE 3/WK BEGINNING 10 D POST LAST CARCINOGEN DOSE AND CONTINUING FOR 20 WK (STUDY DURATION: 23 WK), Route [Carcinogen]: DERMAL, Strain/Sex: CD-1/FEMALE
skin: tumor: Carcinogen: (+/-)-R,11-T-12-DIHYDROXY-T-13,14-EPOXY-11,12,13,14-TETRAHYDRODIBENZO[A,L]PYRENE, 159812-26-7, Doses [Carcinogen]: 1.33, 4, 12 NMOL IN 100 ML ACETONE ONCE, Doses [Carcinogen]: 1.33, 4, 12 NMOL IN 100 ML ACETONE ONCE, Doses [Promoter]: 1.62 NMOL IN 100 ML ACETONE 2/WK FOR 28 WK BEGINNING 1 WK POST CARCINOGEN DOSE (STUDY DURATION: 30 WK), Route [Carcinogen]: DERMAL, Strain/Sex: SENCAR/FEMALE | Carcinogen: (+/-)-R-11,T-12-DIHYDROXY-C-13,14-EPOXY-11,12,13,14-TETRAHYDRODIBENZO[A,L]PYRENE, 159812-27-8, Doses [Carcinogen]: 1.33, 4, 12 NMOL IN 100 ML ACETONE ONCE, Doses [Carcinogen]: 1.33, 4, 12 NMOL IN 100 ML ACETONE ONCE, Doses [Promoter]: 1.62 NMOL IN 100 ML ACETONE 2/WK FOR 28 WK BEGINNING 1 WK POST CARCINOGEN DOSE (STUDY DURATION: 30 WK), Route [Carcinogen]: DERMAL, Strain/Sex: SENCAR/FEMALE | Carcinogen: ANTI-1,2-DIHYDROXY-3,4-EPOXY-1,2,3,4-TETRAHYDRO-5,6-DIMETHYLCHRYSENE, 139347-89-0, Doses [Carcinogen]: 33, 100, 400 NMOL IN 0.1 ML ACETONE ONCE, Doses [Carcinogen]: 33, 100, 400 NMOL IN 0.1 ML ACETONE ONCE, Doses [Promoter]: 0, 2.5 UG IN 0.1 ML ACETONE 3/WK FOR 20 WK BEGINNING 10 D POST CARCINOGEN DOSE (STUDY DURATION: 20 WK), Route [Carcinogen]: DERMAL, Strain/Sex: CD-1/FEMALE | Carcinogen: ANTI-4,3-DIHYDROXY-2,1-EPOXY-4,3,2,1-TETRAHYDROBENZO[C]PHENANTHRENE, 75443-72-0, Doses [Carcinogen]: 100, 400 NMOL IN 0.1 ML ACETONE ONCE, Doses [Promoter]: 0, 2.5 UG IN 0.1 ML ACETONE 3/WK FOR 20 WK BEGINNING 10 D POST CARCINOGEN DOSE (STUDY DURATION: 20 WK), Route [Carcinogen]: DERMAL, Strain/Sex: CD-1/FEMALE | Carcinogen: BENZO[A]PYRENE, 50-32-8, Doses [Carcinogen]: 20, 100 NMOL IN 100 µL ACETONE ONCE, Doses [Promoter]: 3.24 NMOL/100 µL ACETONE 2/WK BEGINNING 2 WK POST CARCINOGEN DOSE AND CONTINUING FOR 24 WK (STUDY DURATION: 27 WK), Route [Carcinogen]: DERMAL, Strain/Sex: SENCAR/FEMALE | Carcinogen: BENZO[A]PYRENE, 50-32-8, Doses [Carcinogen]: 33.3, 100, 300 NMOL IN 100 µL ACETONE ONCE, Doses [Carcinogen]: 33.3, 100, 300 NMOL IN 100 µL ACETONE ONCE, Doses [Promoter]: 3.24 NMOL/100 µL ACETONE ONCE 1 WK POST CARCINOGEN DOSE THEN 2/WK BEGINNING 3 WK LATER AND CONTINUING FOR 11 WK (STUDY D, Route [Carcinogen]: DERMAL, Strain/Sex: SENCAR/FEMALE | Carcinogen: BENZO[B]FLUORANTHENE, 205-99-2, Doses [Carcinogen]: 0, 0.04, 0.12, 0.4 UMOL (TOTAL DOSE) APPLIED IN SUBDOSES 1/2 D FOR 5 WK, Doses [Carcinogen]: 0, 0.04, 0.12, 0.4 UMOL (TOTAL DOSE) APPLIED IN SUBDOSES 1/2 D FOR 5 WK, Doses [Promoter]: 2.5 UG IN 100 µL ACETONE 3/WK FOR 20 WK BEGINNING 10 D POST LAST CARCINOGEN DOSE (STUDY DURATION: 26 WK), Route [Carcinogen]: DERMAL, Strain/Sex: CD-1/FEMALE | Carcinogen: BENZO[B]FLUORANTHENE, 205-99-2, Doses [Carcinogen]: 40, 120, 400 NMOL (TOTAL DOSE) APPLIED 1/2 D FOR 10 SUBDOSES, Doses [Carcinogen]: 40, 120, 400 NMOL (TOTAL DOSE) APPLIED 1/2 D FOR 10 SUBDOSES, Doses [Promoter]: 0, 2.5 UG IN 100 µL ACETONE 3/WK FOR 20 WK BEGINNING 10 D POST CARCINOGEN TREATMENT (STUDY DURATION: 22 WK), Route [Carcinogen]: DERMAL, Strain/Sex: CRL:CD-1/FEMALE | Carcinogen: BENZO[J]FLUORANTHENE, 205-82-3, Doses [Carcinogen]: 0.3, 1, 2 UMOL (TOTAL DOSE) ADMINISTERED IN SUBDOSES 1/2 D, Doses [Carcinogen]: 0.3, 1, 2 UMOL (TOTAL DOSE) ADMINISTERED IN SUBDOSES 1/2 D, Doses [Promoter]: 2.5 UG IN 100 µL ACETONE 3/WK FOR 20 WK BEGINNING 10 D POST LAST CARCINOGEN DOSE (STUDY DURATION: 27 WK), Route [Carcinogen]: DERMAL, Strain/Sex: CD-1/FEMALE | Carcinogen: BENZO[K]FLUORANTHENE, 207-08-9, Doses [Carcinogen]: 4 UMOL (TOTAL DOSE) ADMINISTERED IN 10 SUBDOSES 1/2 D, Doses [Promoter]: 2.5 UG IN 0.1 ML ACETONE 3/WK FOR 30 WK BEGINNING 10 D POST CARCINOGEN TREATMENT (STUDY DURATION: 33 WK), Route [Carcinogen]: DERMAL, Strain/Sex: CRL:CD-1/FEMALE | Carcinogen: CAPTAN, 133-06-2, Doses [Carcinogen]: 450 MG/KG BW IN 200 µL DMSO 3/WK FOR 3 WK, Doses [Promoter]: 0, 5 UG IN 100 µL ACETONE 3/WK FOR 51 WK BEGINNING 1 WK POST CARCINOGEN TREATMENT (STUDY DURATION: 54 WK), Route [Carcinogen]: DERMAL, Strain/Sex: SWISS/FEMALE | Carcinogen: CARBARYL, 63-25-2, Doses [Carcinogen]: 100 MG/KG IN 100 µL ACETONE 3/WK FOR 3 WK, Doses [Promoter]: 0, 5 UG IN 100 µL ACETONE 3/WK FOR 51 WK BEGINNING 1 WK POST CARCINOGEN TREATMENT (STUDY DURATION: 52 WK), Route [Carcinogen]: DERMAL, Strain/Sex: SWISS/FEMALE | Carcinogen: DIBENZO[A,L]PYRENE-8,9-DIHYDRODIOL, 130063-43-3, Doses [Carcinogen]: 100 NMOL IN 100 µL ACETONE ONCE, Doses [Promoter]: 3.24 NMOL/100 µL ACETONE 2/WK BEGINNING 2 WK POST CARCINOGEN DOSE AND CONTINUING FOR 24 WK (STUDY DURATION: 27 WK), Route [Carcinogen]: DERMAL, Strain/Sex: SENCAR/FEMALE | Carcinogen: DIBENZO[A,L]PYRENE-11,12-DIHYDRODIOL, 88191-01-9, Doses [Carcinogen]: 1 NMOL IN 100 µL ACETONE, Doses [Promoter]: 2.16 NMOL IN 100 µL ACETONE 2/WK FOR 27 WK BEGINNING 1 WK POST CARCINOGEN DOSE (STUDY DURATION: 28 WK), Route [Carcinogen]: DERMAL, Strain/Sex: SENCAR/FEMALE | Carcinogen: DIBENZO[A,L]PYRENE-11,12-DIHYDRODIOL, 88191-01-9, Doses [Carcinogen]: 4, 20, 100 NMOL IN 100 µL ACETONE ONCE, Doses [Carcinogen]: 4, 20, 100 NMOL IN 100 µL ACETONE ONCE, Doses [Promoter]: 3.24 NMOL/100 µL ACETONE 2/WK BEGINNING 2 WK POST CARCINOGEN DOSE AND CONTINUING FOR 24 WK (STUDY DURATION: 27 WK), Route [Carcinogen]: DERMAL, Strain/Sex: SENCAR/FEMALE | Carcinogen: DIBENZO[A,L]PYRENE-11,12-DIHYDRODIOL, 155254-86-7, Doses [Carcinogen]: 1.33, 4, 12 NMOL IN 100 ML ACETONE ONCE, Doses [Carcinogen]: 1.33, 4, 12 NMOL IN 100 ML ACETONE ONCE, Doses [Promoter]: 1.62 NMOL IN 100 ML ACETONE 2/WK FOR 28 WK BEGINNING 1 WK POST CARCINOGEN DOSE (STUDY DURATION: 30 WK), Route [Carcinogen]: DERMAL, Strain/Sex: SENCAR/FEMALE
